Laboratory results: PubChem BioAssay AID2060889 (Molecular Pharmacology Branch, DTP, NCI, 2025)
pIC50: −log10 of the molar value. Values joined by “and” are separate entries in the source; they are usually repeats but may differ in a detail not shown here. Equal values may be shown once.

Tested on: LG0567-F671-PDC complex spheroids viability
Experiment: Anticancer human tumor LG0567-F671-PDC patient-derived lung adenocarcinoma cell line growth inhibition [RAS]
Conditions: for viability, T/C: stronger effect = lower value
Procedure, shortened: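 Tumour cells grown as complex spheroids with HUVEC endothelial cells and mesenchymal stem cells, treated with RAS pathway inhibitor combinations. Each agent spans half-log steps from near clinical Cmax, or 10 microM where Cmax is unknown.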
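Further: spheroids exposed to compound for seven days before readout.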
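Wherever pIC50 is given: luminescence signal used as a proxy for viable cells.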

C[C@@H](NC(=O)c1ncnc(N)c1Cl)c1ncc(C(=O)Nc2cc(C(F)(F)F)c(Cl)cn2)s1
viability, T/C (compound 0.0316 µM): 115% [middle of 4 runs]
viability, T/C (compound 0.1 µM): 120% (2×) and 125% (2×)
viability, T/C (compound 0.316 µM): 129% and 122% (2×) and 128%
viability, T/C (compound 1 µM): 121% [middle of 4 runs]
viability, T/C (compound 3.16 µM): 102% [middle of 4 runs]
viability, T/C (compound 10 µM): 79% [middle of 4 runs]
pIC50 (curve of compound): < 5.00

CC(C)NCC(C(=O)N1CCN(c2ncnc3c2C(C)CC3O)CC1)c1ccc(Cl)cc1 (centres undefined) + CCn1c(-c2cc(N3CCN(C)CC3)cnc2C(C)OC)c2c3cc(ccc31)-c1csc(n1)CC(NC(=O)C1CC1C)C(=O)N1CCCC(N1)C(=O)OCC(C)(C)C2
pIC50 (curve of first compound, second compound 0.000949 µM): > 7.50
pIC50 (curve of first compound, second compound 0.003 µM): > 7.50
pIC50 (curve of first compound, second compound 0.00949 µM): > 7.50
pIC50 (curve of first compound, second compound 0.03 µM): > 7.50
pIC50 (curve of first compound, second compound 0.0949 µM): > 7.50
pIC50 (curve of first compound, second compound 0.3 µM): > 7.50
viability, T/C (second compound 0.000949 µM, first compound 0.0316 µM): 25.2%
viability, T/C (second compound 0.000949 µM, first compound 0.1 µM): 23.8%
viability, T/C (second compound 0.000949 µM, first compound 0.316 µM): 19.2%
viability, T/C (second compound 0.000949 µM, first compound 1 µM): 14.8%
viability, T/C (second compound 0.000949 µM, first compound 3.16 µM): 12.1%
viability, T/C (second compound 0.000949 µM, first compound 10 µM): 15.1%
viability, T/C (second compound 0.003 µM, first compound 0.0316 µM): 12.2%
viability, T/C (second compound 0.003 µM, first compound 0.1 µM): 10.1%
viability, T/C (second compound 0.003 µM, first compound 0.316 µM): 9.03%
viability, T/C (second compound 0.003 µM, first compound 1 µM): 7.01%
viability, T/C (second compound 0.003 µM, first compound 3.16 µM): 6.61%
viability, T/C (second compound 0.003 µM, first compound 10 µM): 6.58%
viability, T/C (second compound 0.00949 µM, first compound 0.0316 µM): 6.47%
viability, T/C (second compound 0.00949 µM, first compound 0.1 µM): 6.39%
viability, T/C (second compound 0.00949 µM, first compound 0.316 µM): 5.04%
viability, T/C (second compound 0.00949 µM, first compound 1 µM): 4.97%
viability, T/C (second compound 0.00949 µM, first compound 3.16 µM): 3.86%
viability, T/C (second compound 0.00949 µM, first compound 10 µM): 3.52%
viability, T/C (second compound 0.03 µM, first compound 0.0316 µM): 4.03%
viability, T/C (second compound 0.03 µM, first compound 0.1 µM): 3.99%
viability, T/C (second compound 0.03 µM, first compound 0.316 µM): 3.4%
viability, T/C (second compound 0.03 µM, first compound 1 µM): 2.83%
viability, T/C (second compound 0.03 µM, first compound 3.16 µM): 2.4%
viability, T/C (second compound 0.03 µM, first compound 10 µM): 2.51%
viability, T/C (second compound 0.0949 µM, first compound 0.0316 µM): 3.05%
viability, T/C (second compound 0.0949 µM, first compound 0.1 µM): 2.86%
viability, T/C (second compound 0.0949 µM, first compound 0.316 µM): 2.34%
viability, T/C (second compound 0.0949 µM, first compound 1 µM): 1.84%
viability, T/C (second compound 0.0949 µM, first compound 3.16 µM): 1.68%
viability, T/C (second compound 0.0949 µM, first compound 10 µM): 1.73%
viability, T/C (second compound 0.3 µM, first compound 0.0316 µM): 2.97%
viability, T/C (second compound 0.3 µM, first compound 0.1 µM): 2.51%
viability, T/C (second compound 0.3 µM, first compound 0.316 µM): 2.28%
viability, T/C (second compound 0.3 µM, first compound 1 µM): 1.91%
viability, T/C (second compound 0.3 µM, first compound 3.16 µM): 1.51%
viability, T/C (second compound 0.3 µM, first compound 10 µM): 1.41%
